Measured values reported in the supplement of paper PMC10307832.

How the values were obtained:
Assay in all cases: relative viability (nuclei count vs DMSO), 5 days (fraction); higher = more cells survive
[1] = compound: COc1cc(Nc2ncc3c(n2)-c2ccc(Cl)cc2C(c2c(F)cccc2OC)=NC3)ccc1C(=O)O [Alisertib] + Cc1nc(Nc2ncc(C(=O)Nc3c(C)cccc3Cl)s2)cc(N2CCN(CCO)CC2)n1 [Dasatinib] (partner 0.075 µM)
Method in brief: (§1)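 A single step with final 0.05% Triton X-100, 1% formaldehyde and 1 ug/ml Hoechst fixed the cells and stained nuclei 5 days after treatment. Lung cancer cell lines in 1536-well plates had been treated by pin tool the day after seeding with one drug alone or a fixed anchor-drug dose plus five library-drug doses (not always all listed) in √10 steps, and nuclei were counted on 4× images. Relative viability is the ratio of nuclei in treated wells to nuclei in vehicle wells, taken as the median of duplicate plates.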

[2] = compound: COc1cc(Nc2ncc3c(n2)-c2ccc(Cl)cc2C(c2c(F)cccc2OC)=NC3)ccc1C(=O)O [Alisertib] + Cc1nc(NC(=O)N2CCC[C@H]2C(N)=O)sc1-c1ccnc(C(C)(C)C(F)(F)F)c1 [Alpelisib] (partner 2 µM)
Method in brief: as §1

[3] = compound: COc1cc(Nc2ncc3c(n2)-c2ccc(Cl)cc2C(c2c(F)cccc2OC)=NC3)ccc1C(=O)O [Alisertib] + CC(=O)c1c(C)c2cnc(Nc3ccc(N4CCNCC4)cn3)nc2n(C2CCCC2)c1=O [Palbociclib] (partner 0.5 µM)
Method in brief: as §1

[4] = compound: COc1cc(Nc2ncc3c(n2)-c2ccc(Cl)cc2C(c2c(F)cccc2OC)=NC3)ccc1C(=O)O [Alisertib] + CC(C)C[C@H](NC(=O)[C@H](Cc1ccccc1)NC(=O)c1cnccn1)B(O)O [Bortezomib] (partner 0.002 µM)
Method in brief: as §1

| Cell Line | relative viability ([1]; first compound 0.005 µM) | relative viability ([1]; first compound 0.01581 µM) | relative viability ([1]; first compound 0.05 µM) | relative viability ([1]; first compound 0.1581 µM) | relative viability ([1]; first compound 0.5 µM) | relative viability ([2]; first compound 0.005 µM) | relative viability ([2]; first compound 0.01581 µM) | relative viability ([2]; first compound 0.05 µM) | relative viability ([2]; first compound 0.1581 µM) | relative viability ([2]; first compound 0.5 µM) | relative viability ([3]; first compound 0.005 µM) | relative viability ([3]; first compound 0.01581 µM) | relative viability ([3]; first compound 0.05 µM) | relative viability ([3]; first compound 0.1581 µM) | relative viability ([3]; first compound 0.5 µM) | relative viability ([4]; first compound 0.005 µM) | relative viability ([4]; first compound 0.01581 µM) | relative viability ([4]; first compound 0.05 µM) | relative viability ([4]; first compound 0.1581 µM) | relative viability ([4]; first compound 0.5 µM) |
| --- | --- | --- | --- | --- | --- | --- | --- | --- | --- | --- | --- | --- | --- | --- | --- | --- | --- | --- | --- | --- |
| NCI-H1437 | 0.35 | 0.403 | 0.314 | 0.17 | 0.0967 | 0.91 | 0.836 | 0.425 | 0.213 | 0.112 | 0.241 | 0.289 | 0.217 | 0.172 | 0.144 | 0.489 | 0.457 | 0.191 | 0.191 | 0.114 |
| NCI-H2009 | 0.259 | 0.292 | 0.211 | 0.141 | 0.129 | 1.15 | 1.02 | 0.417 | 0.375 | 0.265 | 0.171 | 0.199 | 0.117 | 0.124 | 0.123 | 0.952 | 0.91 | 0.392 | 0.208 | 0.167 |
| NCI-H1651 | 0.357 | 0.293 | 0.204 | 0.151 | 0.163 | 0.867 | 0.87 | 0.533 | 0.289 | 0.187 | 0.476 | 0.486 | 0.333 | 0.21 | 0.189 | 0.87 | 0.928 | 0.526 | 0.339 | 0.194 |
| LCLC-103H | 0.455 | 0.509 | 0.423 | 0.26 | 0.158 | 0.849 | 1.03 | 0.313 | 0.335 | 0.333 | 0.44 | 0.485 | 0.385 | 0.335 | 0.4 | 1.19 | 1.01 | 1.09 | 0.262 | 0.3 |
| NCI-H1666 | 0.693 | 0.695 | 0.527 | 0.336 | 0.323 | 1.05 | 0.721 | 0.455 | 0.268 | 0.224 | 0.609 | 0.585 | 0.595 | 0.551 | 0.489 | 0.694 | 0.597 | 0.505 | 0.317 | 0.267 |
| NCI-H1734 | 0.449 | 0.358 | 0.291 | 0.181 | 0.151 | 0.623 | 0.628 | 0.444 | 0.253 | 0.239 | 0.397 | 0.325 | 0.296 | 0.245 | 0.188 | 0.775 | 0.621 | 0.383 | 0.227 | 0.175 |
| EPLC-272H | 0.304 | 0.365 | 0.382 | 0.0703 | 0.0736 | 0.858 | 0.838 | 0.486 | 0.266 | 0.133 | 0.32 | 0.318 | 0.303 | 0.236 | 0.238 | 0.794 | 0.856 | 0.79 | 0.135 | 0.13 |
| NCI-H2023 | 0.561 | 0.492 | 0.35 | 0.167 | 0.0881 | 0.571 | 0.412 | 0.456 | 0.351 | 0.117 | 0.349 | 0.288 | 0.174 | 0.125 | 0.0948 | 0.904 | 0.824 | 0.539 | 0.199 | 0.0763 |
| BEN | 0.499 | 0.39 | 0.296 | 0.178 | 0.138 | 1.05 | 0.923 | 0.37 | 0.232 | 0.218 | 0.45 | 0.444 | 0.348 | 0.327 | 0.384 | 0.691 | 0.867 | 0.398 | 0.229 | 0.2 |
| COR-L 105 | 0.291 | 0.296 | 0.293 | 0.194 | 0.177 | 0.741 | 0.849 | 0.71 | 0.343 | 0.245 | 0.368 | 0.417 | 0.356 | 0.33 | 0.37 | 0.757 | 0.875 | 0.447 | 0.27 | 0.218 |
| ABC-1 | 0.46 | 0.436 | 0.434 | 0.226 | 0.243 | 0.979 | 0.724 | 0.929 | 0.475 | 0.223 | 0.697 | 0.661 | 0.67 | 0.371 | 0.316 | 0.279 | 0.269 | 0.315 | 0.278 | 0.278 |
| HCC-15 | 0.45 | 0.332 | 0.232 | 0.104 | 0.102 | 0.875 | 0.662 | 0.229 | 0.148 | 0.106 | 0.661 | 0.465 | 0.296 | 0.213 | 0.146 | 0.941 | 0.901 | 0.48 | 0.164 | 0.118 |
| RERF-LC-KJ | 0.73 | 0.672 | 0.366 | 0.187 | 0.17 | 0.819 | 0.823 | 0.622 | 0.283 | 0.196 | 1.07 | 0.834 | 0.601 | 0.275 | 0.246 | 0.945 | 1.05 | 0.879 | 0.293 | 0.304 |
| NCI-H1993 | 0.538 | 0.644 | 0.474 | 0.386 | 0.433 | 0.625 | 0.652 | 0.538 | 0.625 | 0.573 | 0.583 | 0.672 | 0.529 | 0.402 | 0.35 | 0.97 | 0.982 | 0.549 | 0.542 | 0.497 |
| NCI-H1915 | 0.297 | 0.299 | 0.295 | 0.148 | 0.14 | 0.934 | 0.808 | 0.385 | 0.354 | 0.199 | 0.497 | 0.455 | 0.29 | 0.234 | 0.151 | 0.763 | 0.811 | 0.607 | 0.327 | 0.237 |
| SK-LU-1 | 0.192 | 0.157 | 0.116 | 0.125 | 0.104 | 0.929 | 0.458 | 0.286 | 0.302 | 0.247 | 0.395 | 0.364 | 0.22 | 0.242 | 0.236 | 0.963 | 0.862 | 0.503 | 0.403 | 0.253 |
